This note sets out measurements from PubChem BioAssay (NCI).

Common to all, as to experiment: inhibition of tumour cell growth, NCI panel, 48 h
Test [1] has as its system HCT-15 colon.
In test [2] the test system is SK-MEL-5 melanoma.
For test [3], the system named is NCI-H23 lung.
Test [4] has as its system SF-268 CNS.
In test [5] the test system is SW-620 colon.
The subject of test [6] is HCC-2998 colon.
Test [7] deals with CAKI-1 renal.
The test system of test [8] is A549 NSCLC.
The test system of test [9] is IGROV1 ovarian.
Test [10] concerns NCI-H522 lung.
Test [11] has as its system TK-10 renal.
Test [12] concerns SNB-75 CNS.
Test [13] concerns HT29 colon.
Test [14] concerns 786-0 renal.
Test [15] relates to SK-MEL-2 melanoma.
Test [16] concerns DU-145 prostate.
The subject of test [17] is HS 578T breast.
In test [18] the test system is T-47D breast.
Test [19] deals with HOP-92 NSCLC.

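Growth conditions: 96-well plates. Treatment: test compound, 48 hours, 5 concentrations. Analysis: linear interpolation between bracketing concentrations; unreached endpoints set to highest concentration. Definition used: TGI = concentration required for complete inhibition of growth.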 *1 amine or outer side, *2 acyl side, *3 side chain or, on linkers, in order; H or OH if unused. Where a SMILES comes first, the peptide text is derived from it. [ ]: non-standard residue; d: D form. The star is where a group is joined. ξ: configuration not given here. X27 = O=C([C@H]1CCC[C@H]1N[*:1])[*:2]; ξW = NC(Cc1c[nH]c2ccccc12)C(=O)O; ξF = NC(Cc1ccccc1)C(=O)O; Boc = CC(C)(C)OC(=O)*; ξK = NCCCCC(N)C(=O)O; ξT = CC(O)C(N)C(=O)O; tBu = CC(C)(C)* Where only a bound is given, the exact number is not on record here.

`COc1ccccc1C1C(Cl)C(=O)N1n1cnc2ccccc2c1=O` (stereo unspecified): the TGI in test [1], in test [2], in test [3], in test [4], in test [5] and in test [6] was greater than 100 µM each time. Also, the TGI in test [7], in test [8], in test [9], in [10], in test [11] and in test [12] was greater than 100 µM throughout. The TGI in [13], in test [14] and in test [15] was greater than 100 µM each time.

For `NC(=O)C(=O)c1ncn(Cc2ccccc2)c1N`, the TGI in test [1], in test [2], in [3], in [16], in [4] and in test [5] was greater than 100 µM throughout. The TGI in test [6], in [7], in [8], in test [9], in [10] and in [17] was greater than 100 µM in each case. Moreover, the TGI in [11], in [12], in test [13], in test [18], in test [14] and in [15] was greater than 100 µM throughout.

On to `CC(=O)OC1CC2CCN3C(=O)c4cc5c(cc4[C@H](C1OC(C)=O)C23)OCO5` (stereo partly specified), for which the TGI in test [1], in [3], in [4], in test [5], in [6] and in [8] was greater than 100 µM each time. For the same compound, the TGI in test [9], in test [10], in [11], in test [12], in test [13] and in test [14] was greater than 100 µM throughout.

As for `Cc1[nH]c(=O)nc2c1C(NCCCN(C)C)c1cc(Cl)ccc1N2` (stereo unspecified), the TGI in [3] was 32.3 µM; in [4] it was 30.5 µM; in test [5] it was 28.6 µM; in test [6], 30.1 µM; in test [8], 28.1 µM; in [9] it was 30.1 µM. Moreover, the TGI in [10] is 28.5 µM; in test [11] it was 32.5 µM; in test [12] it was 26.2 µM; in [13], 22.2 µM; in test [14] it was 27.7 µM; in test [19] it was 23.4 µM. Moreover, the TGI in test [15] stood at 31.5 µM.

For `CC(OC(C)(C)C)C1NC(=O)C(CCCCNC(=O)OC(C)(C)C)NC(=O)C(Cc2c[nH]c3ccccc23)NC(=O)C(Cc2ccccc2)NC(=O)[C@H]2CCC[C@H]2NC(=O)C(Cc2ccccc2)NC1=O` (stereo partly specified) (cyclo([X27][ξF][ξW][ξK](Boc)[ξT](tBu)[ξF])), the TGI in test [1] is greater than 100 µM; in test [2] it was 16.1 µM; in [3] it was greater than 100 µM; in test [16] it was greater than 100 µM; in test [4] it was greater than 100 µM; in [5] it was greater than 100 µM. Also, the TGI was greater than 100 µM in test [6]; greater than 100 µM in test [7]; greater than 100 µM in [8]; greater than 100 µM in test [9]; greater than 100 µM in test [10]; 28.4 µM in [17]. For the same compound, the TGI was greater than 100 µM in test [12]; greater than 100 µM in [13]; greater than 100 µM in [18]; greater than 100 µM in [14]; greater than 100 µM in [19]; 62.8 µM in test [15].

Consider `CCOP(=O)(OCC)C(C)(C)N(C)/C(F)=N/C(F)(F)F`, for which the TGI in test [1], in [2], in test [3], in [16], in test [4] and in test [5] was greater than 100 µM each time. Besides, the TGI in [6], in test [7], in test [8], in [9], in test [17] and in test [11] was greater than 100 µM throughout. The TGI in [12], in [13], in test [18], in test [14], in test [19] and in test [15] was greater than 100 µM in each case.

As to `CCOP(=O)(C=C=C1CCC2[C@@H]3CCc4cc(OC)ccc4C3CC[C@]12C)OCC` (stereo partly specified), the TGI in [1] was 24.8 µM; in test [2], 14.2 µM; in test [3], 20.8 µM; in test [16], 30 µM; in test [4], 28 µM; in test [5], 29.2 µM. In addition, the TGI turned out to be 25.2 µM in [6]; 26.6 µM in [7]; 18.4 µM in [8]; 23.6 µM in [9]; 18.9 µM in test [10]; 40.3 µM in [17]. The TGI in test [11] worked out at 25.6 µM; in test [12], 25.5 µM; in test [13], 17.7 µM; in [18] it was 26.6 µM; in test [14] it was 25.3 µM; in [19], 22.5 µM. For the same compound, in [15], the TGI is 26.5 µM.

`NC1=NC2=c3ccccc3=C(c3cnccn3)C2(c2cnccn2)c2ccccc21` (stereo unspecified): the TGI in test [1], in test [2], in test [3], in test [4], in test [5] and in test [6] was greater than 100 µM in each case. Moreover, the TGI in test [7], in test [8], in [9], in test [10], in test [11] and in [12] was greater than 100 µM in each case. Further, the TGI in test [13], in [14], in [19] and in [15] was greater than 100 µM each time.

For the compound `CC(C)(C)OC(=O)N[C@H]1CC(O)c2ccccc2N(CC(=O)O)C1=O` (stereo partly specified), the TGI in test [1], in [2], in [3], in test [4], in [5] and in test [6] was greater than 100 µM each time. Besides, the TGI in [7], in [8], in [9], in test [10], in test [11] and in [12] was greater than 100 µM each time. Besides, the TGI in test [13], in test [14], in [19] and in [15] was greater than 100 µM throughout.

With `Clc1c(Cl)c(Cl)c2c(nnn2C2CCCO2)c1Cl` (stereo unspecified), the TGI in test [1] is 67 µM; in test [2], greater than 100 µM; in [3], 49.3 µM; in test [16], greater than 100 µM; in test [4], greater than 100 µM; in test [6], greater than 100 µM. Also, the TGI in test [7] is 74.9 µM; in [8], 65.1 µM; in test [9], greater than 100 µM; in test [10], 66.6 µM; in [17], 59 µM; in test [11], greater than 100 µM. Moreover, the TGI in test [12] was 40.3 µM; in test [13], greater than 100 µM; in test [18], greater than 100 µM; in test [14] it was greater than 100 µM; in test [15] it was 73.3 µM.

Turning to `COC(=O)[C@H](Cc1ccccc1)NC(=O)/C(=C/C(C)C)NC(=O)[C@H](CCSC)NC=O`, the TGI in test [1], in [2], in test [3], in test [4], in test [5] and in test [6] was greater than 100 µM each time. Further, the TGI in test [7], in [8], in [9], in test [10], in test [11] and in test [12] was greater than 100 µM throughout. The TGI in test [13], in test [14], in test [19] and in [15] was greater than 100 µM each time.

With `O=C(CC(CC(=O)Oc1c(Br)cc(Br)cc1C(=O)O)C(=O)Oc1c(Br)cc(Br)cc1C(=O)O)Oc1c(Br)cc(Br)cc1C(=O)O`, the TGI in [1], in [2], in [3], in test [4], in test [5] and in test [6] was greater than 100 µM in each case. The TGI was greater than 100 µM in test [7]; greater than 100 µM in test [8]; 87.3 µM in test [9]; 55.4 µM in test [10]; greater than 100 µM in test [11]; 93.3 µM in [12]. In addition, the TGI in [13] was greater than 100 µM; in [14] it was greater than 100 µM; in [19], 49.8 µM; in [15], greater than 100 µM.

`CC(=O)OCC(C)C1=C(OC(C)=O)C(=O)C2(C)C/C=C(/C)CC/C=C(\C)CCC(OC(C)=O)C(C)CCC12` (stereo unspecified): the TGI in [1] was 34 µM; in test [2] it was 30.2 µM; in test [16], 36.7 µM; in [4], 35 µM; in [5], 40.7 µM; in test [6], 31.2 µM. Further, the TGI in test [9] was 48.3 µM; in test [17] it was 60 µM; in test [11], 39 µM; in [12], greater than 100 µM; in [13], 33.5 µM; in [18], 89 µM. Besides, the values for the TGI in test [14], in [19] and in test [15] were 28.1 µM, 20.3 µM and 30.6 µM, respectively.

Regarding `CC(C)C1OC(N)=C(C#N)C1(C#N)C#N` (stereo unspecified), the TGI in test [2] is greater than 100 µM; in [3], greater than 100 µM; in test [16], greater than 100 µM; in test [4] it was greater than 100 µM; in [5], greater than 100 µM; in [6] it was 58 µM. Besides, the TGI in [7] is 13.5 µM; in test [8], greater than 100 µM; in test [9] it was greater than 100 µM; in test [10], greater than 100 µM; in [17], greater than 100 µM; in test [11], greater than 100 µM. For the same compound, the TGI in test [12], in [13], in test [18], in test [14], in test [19] and in test [15] was greater than 100 µM throughout.

For the compound `O=C(C=C1SCCS1)/C=C\c1ccc(Cl)cc1`, the TGI in test [2] is greater than 100 µM; in test [3], greater than 100 µM; in [4] it was greater than 100 µM; in test [5] it was greater than 100 µM; in [6], 84.1 µM; in test [7], greater than 100 µM. For the same compound, the TGI in test [8], in test [9], in [10], in test [11], in [12] and in test [13] was greater than 100 µM in each case. Moreover, the TGI in test [14], in test [19] and in test [15] was greater than 100 µM each time.

Turning to `COc1ccc(CC2C3=C(CCN2C(=O)C2CCC2)CC2(CC3)OCCO2)cc1O` (stereo unspecified), the TGI was 46.2 µM in test [1]; greater than 100 µM in test [2]; 44.6 µM in test [3]; 61.6 µM in test [16]; greater than 100 µM in [4]; greater than 100 µM in test [5]. Besides, the TGI in test [6] is greater than 100 µM; in [7], greater than 100 µM; in test [8], greater than 100 µM; in [9] it was greater than 100 µM; in test [10], 38.3 µM; in test [17] it was 73.4 µM. Moreover, the TGI is greater than 100 µM in test [11]; 52.4 µM in [12]; greater than 100 µM in test [13]; greater than 100 µM in test [18]; greater than 100 µM in test [14]; greater than 100 µM in test [19]. This compound gave a TGI in test [15] greater than 100 µM.
